Calls of active or inactive are those of the source. No cut-off for these calls is given here.
Tests used:
[1] = target: 5-hydroxytryptamine receptor 2C (Homo sapiens, UniProt P28335); experiment: GPCRScan assay: inhibition of 5-HT2C; parameters: radioligand conc. used [nm] 1.0 – 2.5, parental cells HEK T
[2] = target: cAMP and cAMP-inhibited cGMP 3',5'-cyclic phosphodiesterase 10A (Homo sapiens, UniProt Q9Y233); experiment: SPA with human PDE10A
[3] = target: Cyclin-dependent kinase 2/cyclin E (Homo sapiens) (UniProt P24864+P24941+O96020); experiment: cyclin-dependent kinase 2 /clyclinE Millipore kinase panel; format: protein-complex assay; details: Compound concentration 10.0 uM
[4] = target: Ephrin type-A receptor 1 (Homo sapiens) (UniProt P21709); experiment: EPH receptor A1 Millipore kinase panel; details: Compound concentration 10.0 uM
[5] = target: Ephrin type-A receptor 8 (Homo sapiens) (UniProt P29322); experiment: EPH receptor A8 Millipore kinase panel; details: Compound concentration 10.0 uM
[6] = target: Eukaryotic elongation factor 2 kinase (Homo sapiens) (UniProt O00418); experiment: eukaryotic elongation factor-2 kinase Millipore kinase panel; details: Compound concentration 10.0 uM
[7] = target: Tyrosine-protein kinase Fes/Fps (Homo sapiens) (UniProt P07332); experiment: feline sarcoma oncogene Millipore kinase panel; details: Compound concentration 10.0 uM
[8] = target: Fibroblast growth factor receptor 3 (Homo sapiens) (UniProt P22607); experiment: fibroblast growth factor receptor 3 Millipore kinase panel; details: Compound concentration 10.0 uM
[9] = target: Tyrosine-protein kinase FRK (Homo sapiens) (UniProt P42685); experiment: fyn-related kinase Millipore kinase panel; details: Compound concentration 10.0 uM
[10] = target: Insulin-like growth factor 1 receptor (Homo sapiens) (UniProt P08069); experiment: insulin-like growth factor 1 receptor (activated) Millipore kinase panel; details: Compound concentration 10.0 uM
[11] = target: Insulin-like growth factor 1 receptor (Homo sapiens) (UniProt P08069); experiment: insulin-like growth factor 1 receptor Millipore kinase panel; details: Compound concentration 10.0 uM
[12] = target: MAP kinase-activated protein kinase 2 (Homo sapiens) (UniProt P49137); experiment: mitogen-activated protein kinase-activated protein kinase 2 Millipore kinase panel; details: Compound concentration 10.0 uM
[13] = target: Mitogen-activated protein kinase 12 (Homo sapiens) (UniProt P53778); experiment: mitogen-activated protein kinase 12 Millipore kinase panel; details: Compound concentration 10.0 uM
[14] = target: Mitogen-activated protein kinase 14 (Homo sapiens) (UniProt Q16539); experiment: mitogen-activated protein kinase 14 Millipore kinase panel; details: Compound concentration 10.0 uM
[15] = target: Mitogen-activated protein kinase kinase kinase 5 (Homo sapiens) (UniProt Q99683); experiment: mitogen-activated protein kinase kinase kinase 5 Millipore kinase panel; details: Compound concentration 10.0 uM
[16] = target: Mitogen-activated protein kinase kinase kinase 9 (Homo sapiens) (UniProt P80192); experiment: mitogen-activated protein kinase kinase kinase 9 Millipore kinase panel; details: Compound concentration 10.0 uM
[17] = target: Serine/threonine-protein kinase NLK (Homo sapiens) (UniProt Q9UBE8); experiment: nemo-like kinase Millipore kinase panel; details: Compound concentration 10.0 uM
[18] = target: NUAK family SNF1-like kinase 1 (Homo sapiens) (UniProt O60285); experiment: NUAK family, SNF1-like kinase, 1 Millipore kinase panel; details: Compound concentration 10.0 uM
[19] = species on record: Homo sapiens; experiment: p21 protein -activated kinase 2 Millipore kinase panel; details: Compound concentration 10.0 uM
[20] = target: Protein kinase C alpha type (Homo sapiens) (UniProt P17252); experiment: protein kinase C, alpha Millipore kinase panel; details: Compound concentration 10.0 uM
[21] = target: Serine/threonine-protein kinase D1 (Homo sapiens) (UniProt Q15139); experiment: protein kinase D1 Millipore kinase panel; details: Compound concentration 10.0 uM
[22] = target: Serine/threonine-protein kinase D2 (Homo sapiens) (UniProt Q9BZL6); experiment: protein kinase D2 Millipore kinase panel; details: Compound concentration 10.0 uM
[23] = target: cGMP-dependent protein kinase 1 (Homo sapiens) (UniProt Q13976); experiment: protein kinase, cGMP-dependent, type I Millipore kinase panel; details: Compound concentration 10.0 uM
[24] = target: Receptor-interacting serine/threonine-protein kinase 2 (Homo sapiens) (UniProt O43353); experiment: receptor-interacting serine-threonine kinase 2 Millipore kinase panel; details: Compound concentration 10.0 uM
[25] = target: Serine/threonine-protein kinase STK11 (Homo sapiens) (UniProt Q15831); experiment: serine/threonine kinase 11 Millipore kinase panel; details: Compound concentration 10.0 uM
[26] = target: Serine/threonine-protein kinase 24 (Homo sapiens) (UniProt Q9Y6E0); experiment: serine/threonine kinase 24 Millipore kinase panel; details: Compound concentration 10.0 uM
[27] = target: Serine/threonine-protein kinase 4 (Homo sapiens) (UniProt Q13043); experiment: serine/threonine kinase 4 Millipore kinase panel; details: Compound concentration 10.0 uM
[28] = target: Activated CDC42 kinase 1 (Homo sapiens) (UniProt Q07912); experiment: tyrosine kinase, non-receptor, 2 Millipore kinase panel; details: Compound concentration 10.0 uM
[29] = target: Receptor tyrosine-protein kinase erbB-4 (Homo sapiens) (UniProt Q15303); experiment: v-erb-a erythroblastic leukemia viral oncogene homolog 4 Millipore kinase panel; details: Compound concentration 10.0 uM
[30] = target: Tyrosine-protein kinase ZAP-70 (Homo sapiens) (UniProt P43403); experiment: zeta-chain associated protein kinase 70kDa Millipore kinase panel; details: Compound concentration 10.0 uM
[31] = target: High affinity cAMP-specific and IBMX-insensitive 3',5'-cyclic phosphodiesterase 8A (Homo sapiens, UniProt O60658); experiment: hPDE8A1 PDE scan
[32] = target: Cannabinoid receptor 1 (Homo sapiens) (UniProt P21554); experiment: hCB1 Cerep panel; details: Compound concentration 10.0 uM
[33] = target: D(2) dopamine receptor (Homo sapiens) (UniProt P14416); experiment: hD2S Cerep panel; details: Compound concentration 10.0 uM
[34] = target: Adenosine receptor A3 (Homo sapiens) (UniProt P0DMS8); experiment: hA3 Cerep panel; details: Compound concentration 10.0 uM
[35] = target: T1, Alpha-2B adrenergic receptor (Homo sapiens) (UniProt P18089); experiment: hAb2 Cerep panel; details: Compound concentration 10.0 uM
T1 sequence (whole entry): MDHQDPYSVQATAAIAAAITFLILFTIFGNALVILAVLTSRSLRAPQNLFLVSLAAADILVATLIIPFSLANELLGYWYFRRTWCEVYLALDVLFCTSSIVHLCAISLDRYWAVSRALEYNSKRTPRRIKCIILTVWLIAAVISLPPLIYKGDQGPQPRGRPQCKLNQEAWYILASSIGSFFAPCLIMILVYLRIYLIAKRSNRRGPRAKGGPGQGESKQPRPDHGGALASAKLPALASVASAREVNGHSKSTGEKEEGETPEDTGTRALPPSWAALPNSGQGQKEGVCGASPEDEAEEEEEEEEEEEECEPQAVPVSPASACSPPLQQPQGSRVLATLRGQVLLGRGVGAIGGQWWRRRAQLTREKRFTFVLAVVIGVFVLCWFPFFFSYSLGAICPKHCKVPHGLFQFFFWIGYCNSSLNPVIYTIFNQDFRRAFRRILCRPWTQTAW

[36] = target: Cannabinoid receptor 2 (Homo sapiens) (UniProt P34972); experiment: hCB2 Cerep panel; details: Compound concentration 10.0 uM
[37] = species on record: Rattus norvegicus; experiment: rGABA Cerep panel; details: Compound concentration 10.0 uM
[38] = target: Glutamate NMDA receptor (Rattus norvegicus) (UniProt P35439+Q00959+Q00960+Q00961+Q62645+Q8VHN2+Q9R1M7); experiment: rNMDA Cerep panel; format: protein-complex assay; details: Compound concentration 10.0 uM
[39] = target: Somatostatin receptor (Mus musculus) (UniProt P30935+O08858+P30875+P30873+P49660); experiment: mSST Cerep panel; format: protein assay; details: Compound concentration 10.0 uM
[40] = species on record: Rattus norvegicus; experiment: rK_ATP potassium channel Cerep panel; details: Compound concentration 10.0 uM
[41] = target: Sodium-dependent noradrenaline transporter (Homo sapiens) (UniProt P23975); experiment: hNET Cerep panel; details: Compound concentration 10.0 uM
[42] = target: Histamine H2 receptor (Homo sapiens) (UniProt P25021); details: Compound concentration 10.0 uM
[43] = target: Muscarinic acetylcholine receptor M3 (Homo sapiens) (UniProt P20309); details: Compound concentration 10.0 uM
[44] = target: cAMP and cAMP-inhibited cGMP 3',5'-cyclic phosphodiesterase 10A (Mus musculus) (UniProt Q8CA95)

Chain of Insulin-like growth factor 1 receptor (Homo sapiens) (P08069 31-736 limits assumed): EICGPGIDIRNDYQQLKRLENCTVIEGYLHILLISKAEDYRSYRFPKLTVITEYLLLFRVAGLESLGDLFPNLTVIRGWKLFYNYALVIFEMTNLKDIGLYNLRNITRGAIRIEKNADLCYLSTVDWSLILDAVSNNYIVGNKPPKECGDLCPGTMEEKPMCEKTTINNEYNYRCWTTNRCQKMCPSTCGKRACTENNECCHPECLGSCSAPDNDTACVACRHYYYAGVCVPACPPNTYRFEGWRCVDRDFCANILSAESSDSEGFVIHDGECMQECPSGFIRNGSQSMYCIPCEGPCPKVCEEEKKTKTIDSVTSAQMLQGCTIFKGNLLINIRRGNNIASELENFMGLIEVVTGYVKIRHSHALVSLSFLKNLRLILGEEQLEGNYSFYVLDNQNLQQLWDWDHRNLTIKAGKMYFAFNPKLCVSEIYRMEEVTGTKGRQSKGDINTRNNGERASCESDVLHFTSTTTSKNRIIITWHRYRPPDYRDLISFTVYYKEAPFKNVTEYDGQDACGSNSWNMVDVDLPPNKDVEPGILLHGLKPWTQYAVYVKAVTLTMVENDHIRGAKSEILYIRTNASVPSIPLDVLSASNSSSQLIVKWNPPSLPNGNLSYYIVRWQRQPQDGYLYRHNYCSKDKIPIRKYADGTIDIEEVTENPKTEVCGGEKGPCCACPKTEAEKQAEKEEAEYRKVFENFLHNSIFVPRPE
Chain of Insulin-like growth factor 1 receptor (Homo sapiens) (P08069 741-1367 limits assumed): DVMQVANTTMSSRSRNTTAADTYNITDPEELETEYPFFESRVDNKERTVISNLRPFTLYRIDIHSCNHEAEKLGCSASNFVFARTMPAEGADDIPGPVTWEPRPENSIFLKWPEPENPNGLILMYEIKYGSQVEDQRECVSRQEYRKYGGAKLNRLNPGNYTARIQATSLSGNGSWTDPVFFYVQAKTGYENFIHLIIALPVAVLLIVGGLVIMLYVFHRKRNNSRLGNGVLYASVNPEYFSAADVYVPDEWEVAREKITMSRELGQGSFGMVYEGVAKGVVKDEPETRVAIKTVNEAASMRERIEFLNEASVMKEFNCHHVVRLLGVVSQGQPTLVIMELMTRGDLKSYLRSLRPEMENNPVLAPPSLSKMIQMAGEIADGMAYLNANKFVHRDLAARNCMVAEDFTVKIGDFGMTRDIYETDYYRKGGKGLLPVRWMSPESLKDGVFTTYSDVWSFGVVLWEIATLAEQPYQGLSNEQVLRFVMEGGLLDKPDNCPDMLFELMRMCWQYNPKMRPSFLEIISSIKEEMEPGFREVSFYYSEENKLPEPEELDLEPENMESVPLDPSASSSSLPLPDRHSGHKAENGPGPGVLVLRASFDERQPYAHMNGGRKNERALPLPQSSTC
Chain of Fibroblast growth factor receptor 3 (Homo sapiens) (P22607 23-806 limits assumed): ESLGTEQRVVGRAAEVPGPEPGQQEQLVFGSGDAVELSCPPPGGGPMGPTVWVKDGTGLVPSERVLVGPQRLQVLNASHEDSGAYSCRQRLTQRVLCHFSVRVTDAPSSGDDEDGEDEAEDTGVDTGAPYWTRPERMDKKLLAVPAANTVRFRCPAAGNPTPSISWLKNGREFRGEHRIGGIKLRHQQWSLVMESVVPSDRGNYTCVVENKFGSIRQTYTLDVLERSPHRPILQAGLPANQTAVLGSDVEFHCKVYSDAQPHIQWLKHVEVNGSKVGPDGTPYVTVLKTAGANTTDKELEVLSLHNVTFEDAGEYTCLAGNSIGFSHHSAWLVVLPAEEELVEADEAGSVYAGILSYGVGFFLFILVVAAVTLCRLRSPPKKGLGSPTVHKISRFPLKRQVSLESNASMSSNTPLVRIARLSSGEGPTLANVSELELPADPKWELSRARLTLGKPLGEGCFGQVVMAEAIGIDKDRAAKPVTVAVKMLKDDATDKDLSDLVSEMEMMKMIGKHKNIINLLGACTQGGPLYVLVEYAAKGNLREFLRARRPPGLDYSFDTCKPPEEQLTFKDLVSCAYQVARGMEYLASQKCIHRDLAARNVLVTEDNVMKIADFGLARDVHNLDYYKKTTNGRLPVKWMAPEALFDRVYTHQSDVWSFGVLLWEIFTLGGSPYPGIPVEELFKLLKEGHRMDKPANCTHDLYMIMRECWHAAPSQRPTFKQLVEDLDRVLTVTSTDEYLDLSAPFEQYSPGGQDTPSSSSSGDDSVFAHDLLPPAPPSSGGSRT
Chain of Mitogen-activated protein kinase kinase kinase 9 (Homo sapiens) (P80192 whole entry, looked up): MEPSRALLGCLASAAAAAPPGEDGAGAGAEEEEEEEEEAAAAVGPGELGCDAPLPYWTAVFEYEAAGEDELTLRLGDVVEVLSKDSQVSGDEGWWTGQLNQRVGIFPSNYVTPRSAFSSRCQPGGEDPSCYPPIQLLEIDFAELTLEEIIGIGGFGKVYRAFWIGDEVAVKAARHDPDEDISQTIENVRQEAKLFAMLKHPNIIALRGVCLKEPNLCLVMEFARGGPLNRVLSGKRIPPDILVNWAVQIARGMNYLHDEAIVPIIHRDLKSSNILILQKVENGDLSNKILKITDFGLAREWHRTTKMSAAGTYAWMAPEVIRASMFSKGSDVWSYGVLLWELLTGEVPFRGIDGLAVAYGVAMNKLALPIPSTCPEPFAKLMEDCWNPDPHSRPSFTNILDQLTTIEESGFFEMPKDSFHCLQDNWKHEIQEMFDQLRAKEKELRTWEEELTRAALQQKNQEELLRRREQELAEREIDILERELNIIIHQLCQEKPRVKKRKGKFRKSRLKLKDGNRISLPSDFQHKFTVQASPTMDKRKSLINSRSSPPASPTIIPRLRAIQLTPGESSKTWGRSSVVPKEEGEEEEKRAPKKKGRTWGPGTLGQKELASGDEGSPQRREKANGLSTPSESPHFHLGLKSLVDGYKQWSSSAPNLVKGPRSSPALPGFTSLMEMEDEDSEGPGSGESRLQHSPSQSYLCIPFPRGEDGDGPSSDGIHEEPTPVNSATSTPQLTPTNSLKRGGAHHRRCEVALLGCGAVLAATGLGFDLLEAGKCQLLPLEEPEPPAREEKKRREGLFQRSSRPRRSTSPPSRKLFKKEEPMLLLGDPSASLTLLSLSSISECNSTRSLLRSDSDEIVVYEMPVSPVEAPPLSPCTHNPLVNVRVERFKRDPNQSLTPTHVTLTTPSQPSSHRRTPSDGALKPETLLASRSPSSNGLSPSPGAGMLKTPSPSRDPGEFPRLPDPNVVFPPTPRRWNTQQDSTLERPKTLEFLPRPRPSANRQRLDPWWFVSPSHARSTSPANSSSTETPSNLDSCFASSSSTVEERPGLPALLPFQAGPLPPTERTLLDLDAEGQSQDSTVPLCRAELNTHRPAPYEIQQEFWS
Chain of Serine/threonine-protein kinase D1 (Homo sapiens) (Q15139 whole entry): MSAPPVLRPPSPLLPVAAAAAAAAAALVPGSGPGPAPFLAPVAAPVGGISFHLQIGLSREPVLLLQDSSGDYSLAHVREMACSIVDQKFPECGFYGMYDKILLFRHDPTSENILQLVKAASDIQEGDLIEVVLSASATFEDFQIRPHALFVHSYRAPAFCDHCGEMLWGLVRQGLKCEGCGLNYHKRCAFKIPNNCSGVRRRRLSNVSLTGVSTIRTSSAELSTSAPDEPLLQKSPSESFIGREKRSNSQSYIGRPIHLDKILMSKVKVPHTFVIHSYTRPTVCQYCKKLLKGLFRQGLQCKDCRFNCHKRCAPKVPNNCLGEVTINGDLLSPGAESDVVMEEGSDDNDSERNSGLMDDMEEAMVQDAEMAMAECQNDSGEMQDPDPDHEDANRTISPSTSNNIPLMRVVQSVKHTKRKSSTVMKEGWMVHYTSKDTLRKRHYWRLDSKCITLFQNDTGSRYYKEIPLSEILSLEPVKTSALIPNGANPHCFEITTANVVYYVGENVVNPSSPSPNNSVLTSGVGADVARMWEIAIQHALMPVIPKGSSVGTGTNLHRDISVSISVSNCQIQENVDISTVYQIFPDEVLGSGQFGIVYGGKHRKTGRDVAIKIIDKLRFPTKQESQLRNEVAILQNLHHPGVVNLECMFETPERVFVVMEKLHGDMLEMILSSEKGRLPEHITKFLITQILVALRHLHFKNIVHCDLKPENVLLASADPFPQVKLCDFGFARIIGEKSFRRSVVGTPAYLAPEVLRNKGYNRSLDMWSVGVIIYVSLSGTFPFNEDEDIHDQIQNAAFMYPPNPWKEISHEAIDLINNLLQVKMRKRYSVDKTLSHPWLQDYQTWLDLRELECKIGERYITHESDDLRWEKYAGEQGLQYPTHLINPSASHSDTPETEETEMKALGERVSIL

Q: `COCCc1ccc(-c2c(C)nc3c(N4CCOCC4)ccnn23)cn1` [JNJ-42396302] was tested. Which Ki [1] did it give?
A: 2200 nM

Q: And the Ki [2]?
A: 13 nM (active)

Q: And the inhibition [3]?
A: 1%

Q: And the inhibition [4]?
A: 7%

Q: What about the inhibition [5] of the same compound?
A: 0%

Q: What about the inhibition [6] of the same compound?
A: -2%

Q: What about the inhibition [7] of the same compound?
A: 13%

Q: And the inhibition [8]?
A: -2%

Q: What about the inhibition [9] of the same compound?
A: -7%

Q: And the inhibition [10]?
A: 3%

Q: And the inhibition [11]?
A: 1%

Q: And the inhibition [12]?
A: -5%

Q: What about the inhibition [13] of the same compound?
A: 2%

Q: What about the inhibition [14] of the same compound?
A: -4%

Q: And the inhibition [15]?
A: -2%

Q: And the inhibition [16]?
A: 5%

Q: And the inhibition [17]?
A: 2%

Q: What about the inhibition [18] of the same compound?
A: 7%

Q: What about the inhibition [19] of the same compound?
A: -3%

Q: What about the inhibition [20] of the same compound?
A: 15%

Q: What about the inhibition [21] of the same compound?
A: -5%

Q: What about the inhibition [22] of the same compound?
A: 2%

Q: And the inhibition [23]?
A: 2%

Q: What about the inhibition [24] of the same compound?
A: -6%

Q: And the inhibition [25]?
A: 4%

Q: What about the inhibition [26] of the same compound?
A: 9%

Q: What about the inhibition [27] of the same compound?
A: -7%

Q: And the inhibition [28]?
A: 0%

Q: What about the inhibition [29] of the same compound?
A: 9%

Q: What about the inhibition [30] of the same compound?
A: 4%

Q: What about the Ki [31] of the same compound?
A: 41000 nM

Q: What about the effect [32] of the same compound?
A: 4.05%

Q: What about the effect [33] of the same compound?
A: 1.7%

Q: What about the effect [34] of the same compound?
A: 8.4%

Q: What about the effect [35] of the same compound?
A: -4.45%

Q: What about the effect [36] of the same compound?
A: 6.1%

Q: What about the effect [37] of the same compound?
A: 21.1%

Q: What about the effect [38] of the same compound?
A: -9.45%

Q: And the effect [39]?
A: 2.8%

Q: And the effect [40]?
A: 2.9%

Q: And the effect [41]?
A: 6.7%

Q: And the inhibition [42]?
A: 12.9%

Q: And the inhibition [43]?
A: 6.41%

Q: What about the Increase in cAMP [44] of the same compound?
A: 2.3 fold

From ChEMBL document CHEMBL4800727 (2021)
